The text below walks through data of patent US20240218019A1, “METHODS AND COMPOSITIONS COMPRISING MHC CLASS I PEPTIDES” (BOARD OF REGENTS, THE UNIVERSITY OF TEXAS SYSTEM, priority 2021, published 2024).

This assay concerns healthy donor PBMCs. Description: IFNγ ELISpot assay with peptide-stimulated healthy donor PBMCs. Type of assay: cell-based, human. As for the experimental part: FIG. 10A-D. In vitro validation of predicted neoAgs immunogenicity using ELISpot IFNy assay. A) Schematic of peptide pool, stimulation, and cell culture workflow for ELISpot assays. PBMCs were exposed with the individual peptides from the immunogenic pools in the presence of IL-7 for 3 d, followed by expansion of neoAg-specific T cells in the presence of IL-2. On day 13, expanded cells (10^5 cells per well) were plated onto 96-well ELISpot plate coated with an IFNγ antibody and re-stimulated with the respective peptide for 24 h. IFNy secreting cells were analyzed as spot-forming units (SFUs), and the inventors chose ≥15 SFU produced by peptide stimulated cells over DMSO control cells as an indicator of the peptide immunogenicity. B) Quantification of IFNγ-secreting cells (SFU) obtained from ELISpot assay of 12 neoAg-stimulated PBMCs. ConcA and DMSO served as positive and negative controls. […] C) Selection of 110 predicted MHC-I neoAgs from 3 different categories and percentage of immunogenicity in vitro validation. […] “Most Immunogenic” refers to neoAgs selected from the top 100 prediction list of Most Immunogenic MHC-I neoAgs. “Most recurrent” refers to neoAgs selected from the top 100 prediction list of Most Recurrent MHC-I neoAgs. “Others” refers neoAgs that were predicted to have low immunogenicity and no recurrency. A total of 44 MHC-II neoAgs from 2 different categories were tested. […] “Most Immunogenic” refers to neoAgs selected from the top 100 prediction list of Most Immunogenic MHC-II neoAgs. “Most recurrent” refers to neoAgs selected from the top 100 prediction list of Most Recurrent MHC-II neoAgs. D) pMHC-pentamer staining. Expanded Pan-T cells from the healthy human donor were isolated and stained with WDTC1 neoAg peptide/A*02:01 Pentameric complexes and PerCP-conjugated CD8 antibody followed by flow cytometry analysis. Pan T-cells from healthy human donor PBMC (HLA-A*02:01) were isolated using negative magnetic selection. Isolated Pan T cells were stimulated and expanded with Opto-antigen presenting beads conjugated with WDTC1 neoAg-peptide. Viable Pan-T cells were gated based on FSC and SSC scatter and SYTOX Blue dead cells staining after doublet-exclusion. Flow cytometric plots representing CD8 positive (x-axis) and PE-biotin-pMHC-pentamer positive (y-axis) cells; unstained, unstimulated, and WDTC1 Opto-antigen presenting beads stimulated cells (left to right). The percentage of live CD8+ cells and CD8/WDTC1 neoAg-loaded MHC pentamer positive cells are shown.
FIG. 19A-B. In vitro validation of the pooled predicted neoAgs immunogenicity using ELISpot IFNγ assay. A) Schematic of peptide pool, stimulation, and cell culture workflow for ELISpot assays. All 154 peptides were grouped into 15 peptide pools to stimulate PBMCs from 3 healthy human donors as shown in the illustrations. IFNy secreting cells were analyzed as spot-forming units (SFUs), indicative of immunogenicity. B) Quantification of IFNγ-secreting cells (SFU) obtained from ELISpot assay. Pools 2, 3, 5, 6, 9, and 12 produced at least 15 or higher SFU/10^5 cells from two different PBMCs. […] ConcA and DMSO served as positive and negative controls.
Healthy donor PBMCs were stimulated with 15 peptide pools (Supplementary Table 13) to expand the neoAg-specific CD8^+ T-cells followed by quantitative ELISpot assays (FIG. 19A) to measure immunogenicity. […] To ascertain the immunogenicity of individual peptides within each immunogenic pool. a deconvolution protocol (see Methods) was implemented (FIG. 10A). […] Three percent of MHC-I neoAgs not predicted to be highly immunogenic or recurrent (Others). 5% of the top 100 most immunogenic MHC-II predicted neoags, and 6% of the top 100 most recurrent MHC-II predicted neoags elicited an immunogenic response as assessed by ELISpot assays. Additionally. 18% of all of these elispot-reactive neoags were also predicted from the validation set (FIG. 9C). […]

The mark [1] stands for this setting: IFNγ ELISpot, peptide-stimulated healthy donor PBMCs.
Where [2] appears, read: IFNγ secretion in healthy donor PBMCs vs unexposed control cells.
The mark [3] stands for this setting: IFNγ ELISpot, only peptides marked Tested.
Setting [4] is: IFNγ ELISpot, peptide-stimulated healthy donor PBMCs, peptides grouped in 15 pools.
[5] abbreviates: IFNγ ELISpot, healthy donor PBMCs stimulated with peptide pools.
Where [6] appears, read: IFNγ ELISpot, peptides marked Tested.

As to KANRYFSPNF [compound 62], under setting [1], the “ELISPOT result (positive Yes/No) for peptides marked Tested” value (“ELISPOT result (positive Yes/No)” for short) is “Yes” and the “ELISPOT result for peptides marked Tested with ELISPOT (Yes/No)” value (shortened to “ELISPOT result … (Yes/No)”) is listed as “No”. Moreover, the Elispot reactive result under setting [2] is given as “Yes”.
On to KLFEKKYSV [compound 6], for which the Elispot reactive result (IFNγ ELISpot, peptide tested) is given as “No”.
Turning to KLSSVVPSV [compound 22], the Elispot reactive result under setting [3] is reported as “No”.
As for KLYEAVPQL [compound 159], under setting [1], the “ELISPOT result (positive Yes/No)” value is on record as “No”.
As to KMMKILMIK [compound 19], the Elispot reactive entry under setting [3] was “No”.
For KPIAGRHTL [compound 8], for the setting “IFNγ ELISpot, peptide tested”, the Elispot reactive entry is on record as “No”.
As for KPLWRKSPL [compound 137], the “ELISPOT result (positive Yes/No)” value under setting [1] is reported as “No”.
Still for that read-out and setting: as for KRAFIHTPR [compound 131], the entry is “No”.
As for KTYMEMHY, under setting [4], the Elispot reactive entry was “yes”.
On to KTYMEMHY [compound 57], for which, under setting [1], the “ELISPOT result (positive Yes/No)” value is on record as “No” and the “ELISPOT result … (Yes/No)” value is listed as “Yes”. Moreover, the Elispot reactive entry under setting [2] is “Yes”.
As to KVDTHHLQV [compound 133], the “ELISPOT result (positive Yes/No)” value under setting [1] is reported as “No”.
Same read-out and setting: then KVPFFSALK [compound 169], with “No”; and LAYWEKREAW [compound 177], with “No”.
Consider LEVMLLNMGYRITGL, for which, under setting [5], the Elispot reactive result is reported as “yes”.
For the sequence LKLCSKVSF [compound 132], the “ELISPOT result (positive Yes/No)” value under setting [1] was “No”.
Consider LLNPVTMNK [compound 204], for which the Elispot reactive result (IFNγ ELISpot, peptide tested) is “No”.
With LLNPVTMNKA, under setting [4], the Elispot reactive result is given as “yes”.
Consider LLNPVTMNKA [compound 206], for which the Elispot reactive entry (IFNγ ELISpot, peptide tested) is listed as “No”.
Turning to LSAPEKITLF [compound 20], the Elispot reactive result by setting is: under setting [3], “Yes”; under setting [2], “Yes”. The “ELISPOT result (positive Yes/No)” value under setting [1] is “Yes”.
Take LSNVAPPAF: the Elispot reactive entry under setting [4] is “yes”.
Take LSNVAPPAF [compound 168]: under setting [1], the “ELISPOT result (positive Yes/No)” value is “Yes”. The Elispot reactive result under setting [2] is listed as “Yes”.
With LSSPFREQM [compound 38], under setting [3], the Elispot reactive result was “No”. For the same sequence, the “ELISPOT result (positive Yes/No)” value under setting [1] is listed as “No”.
Turning to LSSWFSPTV [compound 139], the “ELISPOT result (positive Yes/No)” value under setting [1] is given as “No”.
LTFCTNATI [compound 200]: where the note is “IFNγ ELISpot, peptide tested”, the Elispot reactive result is reported as “No”.
As for LTHPAHQPL [compound 124], under setting [6], the Elispot reactive entry is “No”.
MLLELSPAQL [compound 216]: for the setting “IFNγ ELISpot, peptide tested”, the Elispot reactive result is “No”.
As for MLLRLNLRK [compound 29], the Elispot reactive entry was “Yes” under setting [3] and “Yes” under setting [2]. Moreover, under setting [1], the “ELISPOT result (positive Yes/No)” value was “Yes”.
Regarding MPCFTTALLL [compound 155], under setting [1], the “ELISPOT result (positive Yes/No)” value is on record as “No”.
Same read-out and setting: as for MSSIWGTMF [compound 140], the entry is “No”; as for MYFFWPCSL [compound 174], “No”.
Turning to NMIQVLMSV [compound 49], the “ELISPOT result … (Yes/No)” value under setting [1] was “No”.
Turning to QKKLMLLRLNLRKMC, the Elispot reactive entry under setting [4] is “yes”.
Still for that read-out and setting: as for QTIEERLTW, the entry is “yes”.
As for QTIEERLTW [compound 156], the “ELISPOT result (positive Yes/No)” value under setting [1] is “Yes”. The Elispot reactive result under setting [2] is recorded as “Yes”.
With RAWRAGMPL [compound 153], the “ELISPOT result (positive Yes/No)” value under setting [1] was “No”.
For RAWRRFPLL [compound 118], under setting [6], the Elispot reactive entry is “No”.
For the sequence RFCPASCSGCY, under setting [4], the Elispot reactive entry is recorded as “yes”.
RFCPASCSGCY [compound 170]: the “ELISPOT result (positive Yes/No)” value under setting [1] was “No”.
Turning to RIPAVLRTEGEPLHT, the Elispot reactive result under setting [4] is listed as “yes”.
As to RIPAVLRTEGEPLHT [compound 323], the Elispot reactive result is given as “Yes” under setting [6] and “Yes” under setting [2].
With RLDKGNFAGA, the Elispot reactive result under setting [4] is listed as “yes”.
As for RLDKGNFAGA [compound 215], the Elispot reactive result (IFNγ ELISpot, peptide tested) is reported as “No”.
Regarding RLSCAPPPI, the Elispot reactive entry under setting [4] is on record as “yes”.
Consider RLSCAPPPI [compound 138], for which the “ELISPOT result (positive Yes/No)” value under setting [1] is “Yes”. In addition, under setting [2], the Elispot reactive entry is listed as “Yes”.
As to RLYKYDHNFV [compound 213], the Elispot reactive entry (IFNγ ELISpot, peptide tested) is given as “No”.
For RLYVPLYSSK, under setting [4], the Elispot reactive entry was “yes”.
RLYVPLYSSK [compound 37]: the Elispot reactive result reads like this: under setting [3], “Yes”; under setting [2], “Yes”. Besides, under setting [1], the “ELISPOT result (positive Yes/No)” value was “Yes”.
In the case of RMASTSCAA [compound 161], the “ELISPOT result (positive Yes/No)” value under setting [1] is on record as “No”.
Take RPACTCISM [compound 97]: the “ELISPOT result (positive Yes/No)” value under setting [1] is “No”. Besides, the “ELISPOT positive” value (only neoAgs marked Tested with ELISPOT) is recorded as “No”.
As for RPLCSSLGPL [compound 15], the Elispot reactive result (IFNγ ELISpot, peptide tested) is given as “No”.
The same measure, in the same setting: as for RPRMRAASPL [compound 13], the entry is “No”; as for RPVRGRGSL [compound 14], “No”.
On the same count and under the same terms, then RQMLPTLSTL [compound 214], with “No”.
For the sequence RRPLRSWTPR [compound 152], under setting [1], the “ELISPOT result (positive Yes/No)” value is “No”.
As to RSAFPSRSL [compound 126], the Elispot reactive entry under setting [6] was “No” and the Elispot reactive result (IFNγ ELISpot, only peptides marked Elispot tested = Yes) is “No”.
Regarding RSVLEEMGL [compound 58], under setting [1], the “ELISPOT result (positive Yes/No)” value is “No” and the “ELISPOT result … (Yes/No)” value is “No”.
Regarding RTHPYSPKK [compound 171], the “ELISPOT result (positive Yes/No)” value under setting [1] is reported as “No”.
For the sequence RTLLVTCILY [compound 125], the Elispot reactive result under setting [6] was “No”.
For RTRSAWGDW [compound 141], under setting [1], the “ELISPOT result (positive Yes/No)” value is on record as “No”.
On to RVPAHASTSI, for which the Elispot reactive result under setting [4] is given as “yes”.
Regarding RVPAHASTSL [compound 27], the Elispot reactive entry is “Yes” under setting [3], “Yes” under setting [6] and “Yes” under setting [2].
On to RWMVLRNSWRAVARM, for which, under setting [4], the Elispot reactive result is “yes”.
Take SELLNPVTMNK [compound 205]: the Elispot reactive entry (IFNγ ELISpot, peptide tested) is recorded as “No”.
Turning to SINVLCVRASLIEKL, the Elispot reactive result under setting [5] was “yes”.
As to SLINLTWTA, under setting [4], the Elispot reactive result is listed as “yes”.
In the case of SLINLTWTA [compound 66], the “ELISPOT result … (Yes/No)” value under setting [1] is listed as “No”.
As to SLVRLSSCVPV [compound 4], the Elispot reactive result (IFNγ ELISpot, peptide tested) is listed as “No”.
SLWSSMPHGV [compound 23]: the Elispot reactive entry by setting is: under setting [3], “Yes”; under setting [2], “Yes”.
SMAASPSPK [compound 179]: the “ELISPOT result (positive Yes/No)” value under setting [1] is on record as “No”.
As for SMMPPPPAL [compound 2], the Elispot reactive result (IFNγ ELISpot, peptide tested) is on record as “No”.
For SPAIPPRPL, the Elispot reactive entry under setting [4] is given as “yes”.
As to SPAIPPRPL [compound 7], the Elispot reactive entry (IFNγ ELISpot, peptide tested) is “No”.
On the same count and under the same terms, then SPMITRIL [compound 210], with “No”.
As for SPPLHLCQPL [compound 95], under setting [1], the “ELISPOT result (positive Yes/No)” value was “No” and the “ELISPOT result … (Yes/No)” value was “No”.
Turning to SPSRSTTAPV [compound 134], under setting [1], the “ELISPOT result (positive Yes/No)” value is reported as “No”.
